Patent US10889546B2, “Alkynyl pyridine prolyl hydroxylase inhibitor, and preparation method and medical use thereof” (Jiangsu Hengrui Medicine Co., Ltd., priority 2015, dated 2021)

What was measured:
Prolyl hydroxylase 2 = Prolyl hydroxylase 2 (Homo sapiens (Human), UniProt Q9GZT9); assay: Prolyl hydroxylase 2 inhibition, fluorescence polarization method; assay type: biochemical; conditions: fluorescence polarization, read 1 h after adding the drugs; read-out: Prolyl hydroxylase 2 (IC50 nM)
VEGF = VEGF expression at the cellular level (VEGF kit); assay type: cell-based; conditions: Hep3B human hepatoma cell, 24 h after administration
Description: (§1) The test of the activity of some compounds of the present invention on VEGF at the cellular level and EPO at the cellular level is shown as follows. The method is in accordance with Bioorganic & Medicinal Chemistry Letters 23 (2013) 5953-5957, and the test was carried out by using VEGF and EPO kit respectively 24 h after administration.
(§2) Hep3B Cell: Human Hepatoma Cell

EPO = EPO expression at the cellular level (EPO kit); assay type: cell-based; conditions: Hep3B human hepatoma cell, 24 h after administration
Description: as §1, §2

Sequence of Prolyl hydroxylase 2 (Q9GZT9 whole entry): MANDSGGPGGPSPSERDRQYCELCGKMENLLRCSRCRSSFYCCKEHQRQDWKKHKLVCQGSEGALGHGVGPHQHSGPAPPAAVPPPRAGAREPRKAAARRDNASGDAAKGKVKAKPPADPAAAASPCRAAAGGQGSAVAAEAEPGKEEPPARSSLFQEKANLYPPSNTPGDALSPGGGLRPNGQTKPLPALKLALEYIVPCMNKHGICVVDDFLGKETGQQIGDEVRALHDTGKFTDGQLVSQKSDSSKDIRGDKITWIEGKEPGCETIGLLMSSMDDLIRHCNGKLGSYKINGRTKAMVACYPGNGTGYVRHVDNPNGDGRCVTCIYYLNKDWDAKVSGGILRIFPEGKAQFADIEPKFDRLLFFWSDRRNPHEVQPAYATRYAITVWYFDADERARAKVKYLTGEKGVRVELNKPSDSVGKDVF

Structure (SMILES): CC(C)(C)C#Cc1cnc(C(=O)NCC(=O)O)c(O)c1 [Example 3, 2-(3-Hydroxy-5-tert-butylethynyl)picolinamido acetic acid]
- IC50 (Prolyl hydroxylase 2): 1220 ± 56 nM
- Whether it can increase the expression of VEGF in cells (VEGF): Yes
- Whether it can increase the expression of EPO in cells (EPO): Yes

Structure (SMILES): O=C(O)CNC(=O)c1ncc(C#CC2CC2)cc1O [Example 4, 2-(3-Hydroxy-5-cyclopropylethynyl)picolinamido acetic acid]
- IC50 (Prolyl hydroxylase 2): 834.9 ± 3.2 nM
- Whether it can increase the expression of VEGF in cells (VEGF): Yes
- Whether it can increase the expression of EPO in cells (EPO): Yes

Structure (SMILES): O=C(O)CNC(=O)c1ncc(C#Cc2ccccc2)cc1O [Example 5, 2-(3-Hydroxy-5-phenylethynyl)picolinamido acetic acid]
- IC50 (Prolyl hydroxylase 2): 820 ± 10.9 nM
- Whether it can increase the expression of VEGF in cells (VEGF): Yes
- Whether it can increase the expression of EPO in cells (EPO): Yes

Structure (SMILES): COC(=O)CNC(=O)c1ncc(C#Cc2ccccc2)cc1O [Example 6, Methyl 2-(3-hydroxy-5-phenylethynyl)picolinamido acetate]
- Whether it can increase the expression of VEGF in cells (VEGF): Yes
- Whether it can increase the expression of EPO in cells (EPO): Yes

Structure (SMILES): Cc1ccc(C#Cc2cc(O)c(C(=O)NCC(=O)O)nc2C)cc1 [Example 7, 2-(3-Hydroxy-5-p-methylphenylethynyl-6-methyl)picolinamido acetic acid]
- Whether it can increase the expression of EPO in cells (EPO): Yes

Structure (SMILES): COc1ccc(C#Cc2cc(O)c(C(=O)NCC(=O)O)nc2Cl)cc1 [Example 8, 2-(3-Hydroxy-5-p-methoxyphenylethynyl-6-chloro)picolinamido acetic acid]
- Whether it can increase the expression of VEGF in cells (VEGF): Yes
- Whether it can increase the expression of EPO in cells (EPO): Yes

Structure (SMILES): CC(NC(=O)c1ncc(C#Cc2ccc(C3CC3)cc2)cc1O)C(=O)O (stereo not shown) [Example 9, 2-(3-Hydroxy-5-p-cyclopropylphenylethynylpyridine)carboxamido propionic acid]
- Whether it can increase the expression of VEGF in cells (VEGF): Yes
- Whether it can increase the expression of EPO in cells (EPO): Yes

Structure (SMILES): COc1ccc(C#Cc2cnc(C(=O)NCC(=O)O)c(O)c2)cc1 [Example 16, 2-(3-Hydroxy-5-p-methoxyphenylethynyl)picolinamido acetic acid]
- Whether it can increase the expression of EPO in cells (EPO): Yes

Structure (SMILES): COc1cccc(C#Cc2cnc(C(=O)NCC(=O)O)c(O)c2)c1 [Example 17, 2-(3-Hydroxy-5-m-methoxyphenylethynyl)picolinamido acetic acid]
- Whether it can increase the expression of VEGF in cells (VEGF): Yes
- Whether it can increase the expression of EPO in cells (EPO): Yes

Structure (SMILES): O=C(O)CNC(=O)c1ncc(C#Cc2ccc(-c3ccccc3)cc2)cc1O [Example 18, 2-(3-Hydroxy-5-(biphenyl-4-ylethynyl))picolinamido acetic acid]
- IC50 (Prolyl hydroxylase 2): 8130 ± 40.5 nM

Structure (SMILES): N#Cc1ccc(C#Cc2cnc(C(=O)NCC(=O)O)c(O)c2)cc1 [Example 19, 2-(3-Hydroxy-5-p-cyanophenylethynyl)picolinamido acetic acid]
- Whether it can increase the expression of VEGF in cells (VEGF): Yes
- Whether it can increase the expression of EPO in cells (EPO): Yes

Structure (SMILES): N#Cc1ccccc1C#Cc1cnc(C(=O)NCC(=O)O)c(O)c1 [Example 20, 2-(3-Hydroxy-5-o-cyanophenylethynyl)picolinamido acetic acid]
- Whether it can increase the expression of VEGF in cells (VEGF): Yes
- Whether it can increase the expression of EPO in cells (EPO): Yes

Structure (SMILES): CC(=O)Nc1ccc(C#Cc2cnc(C(=O)NCC(=O)O)c(O)c2)cc1 [Example 22, 2-(3-Hydroxy-5-p-acetamidophenylethynyl)picolinamido acetic acid]
- Whether it can increase the expression of VEGF in cells (VEGF): Yes
- Whether it can increase the expression of EPO in cells (EPO): Yes

Structure (SMILES): CN(C)C(=O)c1ccc(C#Cc2cnc(C(=O)NCC(N)=O)c(O)c2)cc1 [Example 23, 2-(3-Hydroxy-5-p-dimethylcarbamoylphenylethynyl)picolinamidoacetamide]
- Whether it can increase the expression of VEGF in cells (VEGF): Yes
- Whether it can increase the expression of EPO in cells (EPO): Yes

Structure (SMILES): CCCCC(=O)Nc1ccc(C#Cc2cnc(C(=O)NCC(=O)OCC3CC3)c(O)c2)cc1 [Example 24, Cyclopropylmethyl 2-(3-hydroxy-5-p-pentanaminophenylethynyl)picolinamidoacetate]
- Whether it can increase the expression of EPO in cells (EPO): Yes

Structure (SMILES): CCCCNC(=O)c1ccc(C#Cc2cnc(C(=O)NCC(=O)OC(C)C)c(O)c2)cc1 [Example 25, Isopropyl 2-(3-hydroxy-5-p-butylcarbamoylphenylethynyl)picolinamidoacetate]
- Whether it can increase the expression of VEGF in cells (VEGF): Yes

Structure (SMILES): NC(=O)CNC(=O)c1ncc(C#CCOc2ccc(Cl)cc2)cc1O [Example 28]
- Whether it can increase the expression of VEGF in cells (VEGF): Yes
- Whether it can increase the expression of EPO in cells (EPO): Yes

Structure (SMILES): CCc1ccc(OCC#Cc2cnc(C(=O)NCC(=O)OC)c(O)c2)cc1 [Example 29, Methyl 2-(3-hydroxy-5-(3-p-ethylphenoxypropyn-1-yl))picolinamido acetate]
- Whether it can increase the expression of VEGF in cells (VEGF): Yes
- Whether it can increase the expression of EPO in cells (EPO): Yes

Structure (SMILES): CC(C)OC(=O)CNC(=O)c1ncc(C#CCOc2ccc(C#N)cc2)cc1O [Example 30, Isopropyl 2-(3-hydroxy-5-(3-p-cyanophenoxypropyn-1-yl))picolinamido acetate]
- Whether it can increase the expression of VEGF in cells (VEGF): Yes
- Whether it can increase the expression of EPO in cells (EPO): Yes

Structure (SMILES): COc1ccc(OCC#Cc2cnc(C(=O)NCC(=O)O)c(O)c2)cc1 [Example 39, 2-(3-Hydroxy-5-(3-p-methoxyphenoxypropyn-1-yl))picolinamido acetic acid]
- Whether it can increase the expression of VEGF in cells (VEGF): Yes
- Whether it can increase the expression of EPO in cells (EPO): Yes

Structure (SMILES): CC(C)(C)Oc1cccc(OCC#Cc2cnc(C(=O)NCC(=O)O)c(O)c2)c1 [Example 40, 2-(3-Hydroxy-5-(3-m-tert-butoxyphenoxypropyn-1-yl))picolinamido acetic acid]
- Whether it can increase the expression of VEGF in cells (VEGF): Yes
- Whether it can increase the expression of EPO in cells (EPO): Yes

Structure (SMILES): O=C(O)CNC(=O)c1ncc(C#CCOc2cccc(OC3CC3)c2)cc1O [Example 41, 2-(3-Hydroxy-5-(3-m-cyclopropoxyphenoxypropyn-1-yl))picolinamido acetic acid]
- Whether it can increase the expression of VEGF in cells (VEGF): Yes
- Whether it can increase the expression of EPO in cells (EPO): Yes

Structure (SMILES): O=C(O)CNC(=O)c1ncc(C#CCOc2ccc(C(F)(F)F)cc2)cc1O [Example 42, 2-(3-Hydroxy-5-(3-p-trifluoromethylphenoxypropyn-1-yl))picolinamido acetic acid]
- IC50 (Prolyl hydroxylase 2): 515 ± 6.1 nM

Structure (SMILES): O=C(O)CNC(=O)c1ncc(C#CCOc2cccc(Br)c2)cc1O [Example 48, 2-(3-Hydroxy-5-(3-m-bromophenoxypropyn-1-yl))picolinamido acetic acid]
- Whether it can increase the expression of VEGF in cells (VEGF): Yes
- Whether it can increase the expression of EPO in cells (EPO): Yes

Structure (SMILES): N#Cc1cccc(OCC#Cc2cnc(C(=O)NCC(=O)O)c(O)c2)c1 [Example 49, 2-(3-Hydroxy-5-(3-m-cyanophenoxypropyn-1-yl))picolinamido acetic acid]
- Whether it can increase the expression of VEGF in cells (VEGF): Yes
- Whether it can increase the expression of EPO in cells (EPO): Yes

Structure (SMILES): NC(=O)c1ccc(OCC#Cc2cnc(C(=O)NCC(=O)O)c(O)c2)cc1 [Example 52, 2-(3-Hydroxy-5-(3-p-carbamoylphenoxypropyn-1-yl))picolinamido acetic acid]
- Whether it can increase the expression of EPO in cells (EPO): Yes

Structure (SMILES): O=C(O)CNC(=O)c1ncc(C#CCOc2ccc(C(=O)N3CCCC3)cc2)cc1O [Example 54, 2-(3-Hydroxy-5-(3-(4-(pyrrolidin-1-carbonyl)phenoxy)propyn-1-yl))picolinamido acetic acid]
- Whether it can increase the expression of VEGF in cells (VEGF): Yes
- Whether it can increase the expression of EPO in cells (EPO): Yes

Structure (SMILES): O=C(O)CNC(=O)c1nc(Cl)c(C#CCOc2ccc(C(=O)N3CC3)cc2)cc1O [Example 55]
- Whether it can increase the expression of VEGF in cells (VEGF): Yes
- Whether it can increase the expression of EPO in cells (EPO): Yes

Structure (SMILES): O=C(O)CNC(=O)c1ncc(C#CCOc2ccc3ccccc3c2)cc1O [Example 58, 2-(3-Hydroxy-5-(3-(naphthalen-2-oxy)propyn-1-yl))picolinamido acetic acid]
- Whether it can increase the expression of VEGF in cells (VEGF): Yes
- Whether it can increase the expression of EPO in cells (EPO): Yes

Structure (SMILES): O=C(O)CNC(=O)c1ncc(C#CCOc2cccc(Cl)c2Cl)cc1O [Example 61, 2-(3-Hydroxy-5-(3-(2,3-dichlorophenyl)oxypropyn-1-yl))picolinamido acetic acid]
- Whether it can increase the expression of VEGF in cells (VEGF): Yes
- Whether it can increase the expression of EPO in cells (EPO): Yes

Structure (SMILES): O=C(O)CNC(=O)c1ncc(C#CCOc2cc(Cl)cc(Cl)c2)cc1O [Example 62, 2-(3-Hydroxy-5-(3-(3,5-dichlorophenyl)oxypropyn-1-yl))picolinamido acetic acid]
- Whether it can increase the expression of VEGF in cells (VEGF): Yes
- Whether it can increase the expression of EPO in cells (EPO): Yes

Structure (SMILES): Cc1nc(C(=O)NCC(=O)O)c(O)cc1C#CCOc1ccc(C2CC2)cc1 [Example 63, 2-(3-Hydroxy-5-(3-p-cyclopropylphenoxypropyn-1-yl)-6-methyl)picolinamido acetic acid]
- Whether it can increase the expression of EPO in cells (EPO): Yes

Structure (SMILES): CCc1ccc(NCC#Cc2cnc(C(=O)NCC(=O)O)c(O)c2)cc1 [Example 66, 2-(3-Hydroxy-5-(3-p-ethylanilinopropyn-1-yl))picolinamido acetic acid]
- Whether it can increase the expression of VEGF in cells (VEGF): Yes
- Whether it can increase the expression of EPO in cells (EPO): Yes
